Experimental data: ChEMBL document CHEMBL4393743, “Anti-tumor activity evaluation of novel tubulin and HDAC dual-targeting inhibitors” (Bioorg Med Chem Lett, 2019)
Calls of active or inactive are those of the source. No cut-off for these calls is given here.

Assays:
Tubulin = assay: Inhibition of tubulin polymerization (unknown origin) by spectrophotometric method; assay type: protein-complex assay, Homo sapiens
LoVo = assay: Antiproliferative activity against human LoVo cells assessed as cell growth inhibition incubated for 72 hrs by MTT assay; assay type: functional, cell-based
Histone deacetylase 8 = biological target: T1, Histone deacetylase 8 (Homo sapiens, UniProt Q9BY41); assay: Inhibition of HDAC8 (unknown origin) using Boc-Lys(Ac)-AMC as substrate incubated for 60 mins by fluorescence assay
T1 sequence (Q9BY41 whole entry): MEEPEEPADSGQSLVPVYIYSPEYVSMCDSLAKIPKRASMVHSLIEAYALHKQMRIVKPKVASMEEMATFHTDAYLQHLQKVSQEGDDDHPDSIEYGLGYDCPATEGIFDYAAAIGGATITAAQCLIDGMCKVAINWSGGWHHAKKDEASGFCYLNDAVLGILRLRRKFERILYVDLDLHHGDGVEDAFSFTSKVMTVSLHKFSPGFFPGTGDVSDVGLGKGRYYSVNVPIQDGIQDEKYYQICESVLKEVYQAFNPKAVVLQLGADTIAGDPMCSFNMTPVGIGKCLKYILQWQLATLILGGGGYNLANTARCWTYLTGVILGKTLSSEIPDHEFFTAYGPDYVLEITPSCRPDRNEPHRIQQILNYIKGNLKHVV

NCI-H226 = assay: Antiproliferative activity against human NCI-H226 cells assessed as cell growth inhibition incubated for 72 hrs by MTT assay; assay type: functional, cell-based; settings: NCI-H226, 72 h
Histone deacetylase 1 = Histone deacetylase 1 (Homo sapiens, UniProt Q13547); assay: Inhibition of HDAC1 (unknown origin) using Boc-Lys(Ac)-AMC as substrate incubated for 60 mins by fluorescence assay
Chain of Histone deacetylase 1 (Q13547 whole entry): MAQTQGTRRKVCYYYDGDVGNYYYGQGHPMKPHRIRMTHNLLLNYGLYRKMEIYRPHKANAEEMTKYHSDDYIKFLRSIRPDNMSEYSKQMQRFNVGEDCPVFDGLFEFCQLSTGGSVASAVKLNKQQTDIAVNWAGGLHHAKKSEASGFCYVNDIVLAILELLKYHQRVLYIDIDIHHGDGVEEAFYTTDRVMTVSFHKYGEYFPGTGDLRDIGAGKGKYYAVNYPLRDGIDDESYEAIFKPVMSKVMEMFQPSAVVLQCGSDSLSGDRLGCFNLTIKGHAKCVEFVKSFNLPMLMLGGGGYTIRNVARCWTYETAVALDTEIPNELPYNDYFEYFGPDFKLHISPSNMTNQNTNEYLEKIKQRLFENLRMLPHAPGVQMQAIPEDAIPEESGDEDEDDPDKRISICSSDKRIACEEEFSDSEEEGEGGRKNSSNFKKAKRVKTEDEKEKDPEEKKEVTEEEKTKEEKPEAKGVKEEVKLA

[1] = biological target: T2, Protein deacetylase HDAC6 (Homo sapiens, UniProt Q9UBN7); assay: Inhibition of HDAC6 (unknown origin) using Boc-Lys(Ac)-AMC as substrate incubated for 60 mins by fluorescence assay
T2 sequence (Q9UBN7 whole entry): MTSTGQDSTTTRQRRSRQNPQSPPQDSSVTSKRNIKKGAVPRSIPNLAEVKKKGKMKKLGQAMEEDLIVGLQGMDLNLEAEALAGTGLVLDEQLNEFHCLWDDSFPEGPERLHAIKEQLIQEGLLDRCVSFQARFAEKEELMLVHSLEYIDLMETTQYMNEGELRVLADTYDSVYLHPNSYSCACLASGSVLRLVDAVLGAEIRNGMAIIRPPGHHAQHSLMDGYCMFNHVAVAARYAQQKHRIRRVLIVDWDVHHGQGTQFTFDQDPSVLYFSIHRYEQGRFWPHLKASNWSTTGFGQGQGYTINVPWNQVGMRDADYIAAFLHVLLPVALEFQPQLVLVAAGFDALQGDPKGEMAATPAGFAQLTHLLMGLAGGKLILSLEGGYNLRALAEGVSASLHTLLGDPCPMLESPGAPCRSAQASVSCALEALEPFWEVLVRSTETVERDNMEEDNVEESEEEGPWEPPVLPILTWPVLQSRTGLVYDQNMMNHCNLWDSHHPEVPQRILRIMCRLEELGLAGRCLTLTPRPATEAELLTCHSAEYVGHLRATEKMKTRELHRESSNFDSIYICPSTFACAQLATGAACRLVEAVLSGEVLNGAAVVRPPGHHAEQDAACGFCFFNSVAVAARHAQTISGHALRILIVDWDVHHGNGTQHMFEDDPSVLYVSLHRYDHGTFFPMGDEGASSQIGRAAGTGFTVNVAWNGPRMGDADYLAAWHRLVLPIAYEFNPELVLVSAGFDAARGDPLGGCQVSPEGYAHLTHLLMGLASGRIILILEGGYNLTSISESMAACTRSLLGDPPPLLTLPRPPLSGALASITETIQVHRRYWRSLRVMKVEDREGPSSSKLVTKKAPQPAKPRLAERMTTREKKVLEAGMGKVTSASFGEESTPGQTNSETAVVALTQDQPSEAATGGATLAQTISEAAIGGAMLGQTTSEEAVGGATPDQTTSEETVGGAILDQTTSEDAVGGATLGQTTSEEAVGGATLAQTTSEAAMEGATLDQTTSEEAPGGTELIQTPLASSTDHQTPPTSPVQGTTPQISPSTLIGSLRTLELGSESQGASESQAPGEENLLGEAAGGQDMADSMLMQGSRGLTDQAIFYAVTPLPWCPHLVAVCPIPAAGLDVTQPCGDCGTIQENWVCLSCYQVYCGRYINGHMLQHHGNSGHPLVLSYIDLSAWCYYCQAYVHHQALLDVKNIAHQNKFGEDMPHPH

HeLa = assay: Antiproliferative activity against human HeLa cells assessed as cell growth inhibition incubated for 72 hrs by MTT assay; assay type: functional, cell-based
A549 [2] = assay: Antiproliferative activity against human A549 cells assessed as cell growth inhibition incubated for 72 hrs by MTT assay; assay type: functional, cell-based; settings: A549, 72 h
SGC-7901 = assay: Antiproliferative activity against human SGC7901 cells assessed as cell growth inhibition incubated for 72 hrs by MTT assay; assay type: functional, cell-based; settings: SGC-7901, 72 h
HCT-116 = assay: Antiproliferative activity against human HCT116 cells assessed as cell growth inhibition incubated for 72 hrs by MTT assay; assay type: functional, cell-based; settings: HCT-116, 72 h
NCI-H460 = assay: Antiproliferative activity against human NCI-H460 cells assessed as cell growth inhibition incubated for 72 hrs by MTT assay; assay type: functional, cell-based; settings: NCI-H460, 72 h
MCF7 = assay: Antiproliferative activity against human MCF7 cells assessed as cell growth inhibition incubated for 72 hrs by MTT assay; assay type: functional, cell-based; settings: MCF7, 72 h
MDA-MB-231 = assay: Antiproliferative activity against human MDA-MB-231 cells assessed as cell growth inhibition incubated for 72 hrs by MTT assay; assay type: functional, cell-based; settings: MDA-MB-231, 72 h
MGC-803 = assay: Antiproliferative activity against human MGC803 cells assessed as cell growth inhibition incubated for 72 hrs by MTT assay; assay type: functional, cell-based; settings: MGC-803, 72 h
BGC-823 = assay: Antiproliferative activity against human BGC823 cells assessed as cell growth inhibition incubated for 72 hrs by MTT assay; assay type: functional, cell-based; settings: BGC-823, 72 h
Histone deacetylase = assay: Inhibition of HDAC in human HeLA cell nuclear extracts; assay type: cell-based
[3] = biological target: Histone deacetylase (Homo sapiens) (UniProt Q13547+O15379+Q9UBN7+Q92769+Q9UQL6+Q8WUI4+Q9BY41+Q96DB2+P56524+Q9UKV0+Q969S8); settings: HeLa, at 1 µM
Description: Inhibition of HDAC in human HeLa cell nuclear extracts at 1 uM

A549 [4] = assay: Induction of apoptosis in human A549 cells assessed as live cells at 10 uM incubated for 72 hrs by Annexin V-FITC/propidium iodide-staining based flow cytometric analysis (reference value: 89.8%); assay type: functional
A549 [5] = assay: Induction of apoptosis in human A549 cells assessed as early apoptotic cells at 10 uM incubated for 72 hrs by Annexin V-FITC/propidium iodide-staining based flow cytometric analysis (reference value: 1.8%); assay type: functional
A549 [6] = assay: Induction of apoptosis in human A549 cells assessed as late apoptotic cells at 10 uM incubated for 72 hrs by Annexin V-FITC/propidium iodide-staining based flow cytometric analysis (reference value: 5.69%); assay type: functional
A549 [7] = assay: Induction of apoptosis in human A549 cells assessed as necrotic cells at 10 uM incubated for 72 hrs by Annexin V-FITC/propidium iodide-staining based flow cytometric analysis (reference value: 2.76%); assay type: functional
A549 [8] = assay: Induction of cell cycle arrest in human A549 cells assessed as accumulation at G0/G1 phase at 10 uM incubated for 36 hrs by propidium iodide staining based flow cytometry (reference value: 72.51%); assay type: functional
A549 [9] = assay: Induction of cell cycle arrest in human A549 cells assessed as accumulation at S phase at 10 uM incubated for 36 hrs by propidium iodide staining based flow cytometry (reference value: 16.66%); assay type: functional
A549 [10] = assay: Induction of cell cycle arrest in human A549 cells assessed as accumulation at G2/M phase at 10 uM incubated for 36 hrs by propidium iodide staining based flow cytometry (reference value: 10.83%); assay type: functional
A549 [11] = assay: Antimigratory activity in human A549 cells at 5 to 10 uM incubated for 12 hrs in presence of mitomycin by inverted microscopic-based wound healing assay; assay type: functional, cell-based

COc1ccc(/C=C/C(=O)c2cc(OC)c(OC)c(OC)c2)cc1OCCCCCCC(=O)NO
IC50 (Tubulin): 10.4 µM | IC50 (LoVo): 12.6 µM | IC50 (Histone deacetylase 8): 3.88 µM | IC50 (NCI-H226): 15.7 µM | IC50 (Histone deacetylase 1): 0.0363 µM | IC50 [1]: 0.0046 µM | IC50 (HeLa): 21.4 µM | IC50 (A549 [2]): 7.15 µM | IC50 (SGC-7901): 24.5 µM | IC50 (HCT-116): 29.9 µM | IC50 (NCI-H460): 13.2 µM | IC50 (MCF7): 17.9 µM | IC50 (MDA-MB-231): 15.2 µM | IC50 (MGC-803): 10.1 µM | IC50 (BGC-823): 11.5 µM | IC50 (Histone deacetylase): 0.1326 µM | inhibition [3]: 87.3%

COc1ccc(/C=C(\C)C(=O)c2cc(OC)c(OC)c(OC)c2)cc1OCCCCCC(=O)NO
IC50 (HeLa): 10.4 µM | IC50 (A549 [2]): 13.6 µM | IC50 (SGC-7901): 14 µM | inhibition [3]: 74.8%

COc1ccc(/C=C/C(=O)c2cc(OC)c(OC)c(OC)c2)cc1OCCCCCCCC(=O)NO
IC50 (HeLa): 37.2 µM | IC50 (A549 [2]): 13.3 µM | IC50 (SGC-7901): > 50 µM | inhibition [3]: 84.8%

COc1ccc(/C=C/C(=O)c2cc(OC)c(OC)c(OC)c2)cc1OCCCCCC(=O)NO
IC50 (HeLa): 24.6 µM | IC50 (A549 [2]): 9.4 µM | IC50 (SGC-7901): 25.2 µM | inhibition [3]: 78.5%

COc1ccc(/C=C/C(=O)c2cc(OC)c(OC)c(OC)c2)cc1O
IC50 (Tubulin): 4 µM | IC50 (LoVo): 3.99 µM | IC50 (NCI-H226): 4.38 µM | IC50 (HeLa): 0.44 µM | IC50 (A549 [2]): 1.02 µM | IC50 (SGC-7901): 1.13 µM | IC50 (HCT-116): 2.85 µM | IC50 (NCI-H460): 4.98 µM | IC50 (MCF7): 8.6 µM | IC50 (MDA-MB-231): 4.28 µM | IC50 (MGC-803): 8.33 µM | IC50 (BGC-823): 7.58 µM

COc1ccc(/C=C(\C)C(=O)c2cc(OC)c(OC)c(OC)c2)cc1O
IC50 (HeLa): > 50 µM | IC50 (A549 [2]): 1.51 µM | IC50 (SGC-7901): 2.06 µM

COc1ccc(/C=C/C(=O)c2cc(OC)c(OC)c(OC)c2)cc1OCCCCC(=O)NO
IC50 (HeLa): 25.9 µM | IC50 (A549 [2]): 14.3 µM | IC50 (SGC-7901): > 50 µM | inhibition [3]: 32.9%

COc1ccc(/C=C(\C)C(=O)c2cc(OC)c(OC)c(OC)c2)cc1OCCCCCCC(=O)NO
IC50 (HeLa): 16.6 µM | IC50 (A549 [2]): 11.5 µM | IC50 (SGC-7901): 20 µM | inhibition [3]: 86%

COc1ccc(/C=C(\C)C(=O)c2cc(OC)c(OC)c(OC)c2)cc1OCCCCC(=O)NO
IC50 (HeLa): 3.15 µM | IC50 (A549 [2]): 1.45 µM | IC50 (SGC-7901): 13.9 µM | inhibition [3]: 35.4%

COc1ccc(/C=C(\C)C(=O)c2cc(OC)c(OC)c(OC)c2)cc1OCCCCCCCC(=O)NO
IC50 (Tubulin): 5 µM | IC50 (LoVo): 9.93 µM | IC50 (Histone deacetylase 8): 4.91 µM | IC50 (NCI-H226): 23.2 µM | IC50 (Histone deacetylase 1): 0.0152 µM | IC50 [1]: 0.0136 µM | IC50 (HeLa): 19.4 µM | IC50 (A549 [2]): 20 µM | IC50 (SGC-7901): 28.3 µM | IC50 (HCT-116): 10.7 µM | IC50 (NCI-H460): 20.2 µM | IC50 (MCF7): 12 µM | IC50 (MDA-MB-231): 11.8 µM | IC50 (MGC-803): 16.4 µM | IC50 (BGC-823): 15.2 µM | IC50 (Histone deacetylase): 0.0715 µM | inhibition [3]: 92.3%

COc1ccc(/C=C/C(=O)c2cc(OC)c(OC)c(OC)c2)cc1OCCCC(=O)NO
IC50 (HeLa): 13.3 µM | IC50 (A549 [2]): 12.2 µM | IC50 (SGC-7901): 17.4 µM | inhibition [3]: 21.8%

O=C(CCCCCCC(=O)Nc1ccccc1)NO [VORINOSTAT]
IC50 (LoVo): 2.15 µM | IC50 (SGC-7901): 1.03 µM | Activity (A549 [4]): 60.3% | Activity (A549 [5]): 7.17% | Activity (A549 [6]): 24% | Activity (A549 [7]): 8.58% | Activity (A549 [8]): 9.61% | Activity (A549 [9]): 39.53% | Activity (A549 [10]): 50.86% | Activity (A549 [11]): Active
